Source: US5648333A, “Peptides having bradykinin antagonist action” (Hoechst Aktiengesellschaft, priority 1988, dated 1997)
Where a SMILES comes first, the peptide text is derived from it. [ ]: non-standard residue; d: D form. Oic = O=C(O)[C@@H]1C[C@@H]2CCCC[C@@H]2N1; Hyp = O=C(O)[C@@H]1C[C@@H](O)CN1; dTic = O=C(O)[C@H]1Cc2ccccc2CN1

Target: T1, isolated pulmonary artery of the guinea pig (Cavia porcellus, UniProt O70526)
T1 sequence (O70526 1-372): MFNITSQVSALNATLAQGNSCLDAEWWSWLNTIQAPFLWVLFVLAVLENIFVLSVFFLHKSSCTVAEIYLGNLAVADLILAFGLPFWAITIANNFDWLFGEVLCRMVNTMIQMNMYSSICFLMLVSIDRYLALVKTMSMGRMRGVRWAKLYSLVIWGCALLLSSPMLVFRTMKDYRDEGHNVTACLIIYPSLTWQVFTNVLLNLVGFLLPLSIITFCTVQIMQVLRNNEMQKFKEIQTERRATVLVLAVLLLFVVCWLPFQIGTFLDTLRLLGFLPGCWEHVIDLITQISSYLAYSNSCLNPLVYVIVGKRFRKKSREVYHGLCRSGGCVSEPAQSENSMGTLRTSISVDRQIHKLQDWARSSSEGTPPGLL
Assay: bradykinin antagonist action on the isolated arteria pulmonalis of the guinea pig (decrease of bradykinin-induced contraction)
Method: For testing the peptides according to the invention on the isolated arteria pulmonalis, guinea pigs (Dunkin Hartley) having a weight of 400-450 g are sacrificed by a blow to the back of the neck.
The thorax is opened and the arteria pulmonalis is carefully dissected out. The surrounding tissue is carefully removed and the arteria pulmonalis is cut spirally at an angle of 45°.
The vessel strip of 2.5 cm length and 3-4 mm width is fixed in a 10 ml capacity organ bath which is filled with Ringer solution.
95% O2 and 5% CO2 is bubbled through the solution, which is warmed to 37° C. The pH is 7.4 and the preload on the vessel strip is 1.0 g.
The isotonic contraction changes are detected using a lever arrangement and an HF modem (position sensor) from Hugo Sachs and recorded on a compensating recorder (BEC, Goerz Metrawatt SE 460).
After equilibration for 1 hour, the experiment is begun.
For the detection of a partial agonistic effect, the peptides are used in the doses 1×10^-5 -1×10^-3 mol/l.

[1] = Table 1, vessel strip contracted with 2×10^-7 mol/l of bradykinin, peptides act 10 minutes, calculated from dose-effect curves

| IC50 [1] [µM] | Compound | IC50 (table by Example No., test not named there, values coincide with Table 1) [µM] |
| --- | --- | --- |
| – | N=C(N)NCCC[C@@H](N)C(=O)N[C@@H](CCCNC(=N)N)C(=O)N1CCC[C@H]1C(=O)N1C[C@H](O)C[C@H]1C(=O)NCC(=O)N[C@@H](Cc1cccs1)C(=O)N[C@@H](CO)C(=O)N1Cc2ccccc2C[C@@H]1C(=O)N1[C@H](C(=O)N[C@@H](CCCNC(=N)N)C(=O)O)C[C@@H]2CCCC[C@@H]21 [Example 59, H-(D)-Arg-Arg-Pro-Hyp-Gly-Thia-Ser-(D)-Tic-Oic-Arg-OH] | 0.0054 |
| 6 | CC(C)(C)[C@H](NC(=O)CNC(=O)[C@@H]1C[C@@H](O)CN1C(=O)[C@@H]1CCCN1C(=O)[C@H](CCCNC(=N)N)NC(=O)[C@H](N)CCCNC(=N)N)C(=O)N[C@@H](CO)C(=O)N1Cc2ccccc2C[C@@H]1C(=O)N1[C@H](C(=O)N[C@@H](CCCNC(=N)N)C(=O)O)C[C@@H]2CCCC[C@@H]21 [Example 201, H-(D)-Arg-Arg-Pro-Hyp-Gly-Tbg-Ser-(D)-Tic-Oic-Arg-OH] | – |
| 0.0059 | CC(C)C[C@H](NC(=O)CNC(=O)[C@@H]1C[C@@H](O)CN1C(=O)[C@@H]1CCCN1C(=O)[C@H](CCCNC(=N)N)NC(=O)[C@H](N)CCCNC(=N)N)C(=O)N[C@@H](CO)C(=O)N1Cc2ccccc2C[C@@H]1C(=O)N1[C@H](C(=O)N[C@@H](CCCNC(=N)N)C(=O)O)C[C@@H]2CCCC[C@@H]21 [Example 199, H-(D)-Arg-Arg-Pro-Hyp-Gly-Leu-Ser-(D)-Tic-Oic-Arg-OH] (H-[dR]RP[Hyp]GLS[dTic][Oic]R-OH) | – |
| 0.037 | N=C(N)NCCC[C@@H](N)C(=O)N[C@@H](CCCNC(=N)N)C(=O)N1CCC[C@H]1C(=O)N1C[C@H](O)C[C@H]1C(=O)NCC(=O)N[C@@H](CC1CCCCC1)C(=O)N[C@@H](CO)C(=O)N1Cc2ccccc2C[C@@H]1C(=O)N1[C@H](C(=O)N[C@@H](CCCNC(=N)N)C(=O)O)C[C@@H]2CCCC[C@@H]21 [Example 200, H-(D)-Arg-Arg-Pro-Hyp-Gly-Cha-Ser-(D)-Tic-Oic-Arg-OH] | – |
